Test results: US7598397B2, “Sulfonamide peri-substituted bicyclics for occlusive artery disease” (deCODE genetics ehf, priority 2004, dated 2009)

The compounds below were run against T1, prostanoid EP3 receptors (Homo sapiens, UniProt P43115) (assay: binding on prostanoid EP3 receptors (method of Abramovitz et al.)). Conditions: read-out: Activity (EP3 receptor binding, IC50 class).
T1 sequence (P43115 1-390): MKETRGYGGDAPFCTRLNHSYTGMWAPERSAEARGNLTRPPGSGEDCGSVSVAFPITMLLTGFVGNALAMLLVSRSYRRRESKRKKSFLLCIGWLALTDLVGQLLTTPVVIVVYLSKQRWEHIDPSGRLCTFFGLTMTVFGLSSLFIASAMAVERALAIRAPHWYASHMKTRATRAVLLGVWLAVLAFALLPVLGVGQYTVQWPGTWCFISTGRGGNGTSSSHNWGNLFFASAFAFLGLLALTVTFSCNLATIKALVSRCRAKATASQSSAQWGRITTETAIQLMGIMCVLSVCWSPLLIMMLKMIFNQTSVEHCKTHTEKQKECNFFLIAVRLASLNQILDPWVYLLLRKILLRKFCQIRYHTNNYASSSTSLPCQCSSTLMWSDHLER
Method: The compounds of the invention were assayed for their binding on prostanoid EP3 receptors according to the method of Abramovitz et al. [Bioch. Biophys.

Compound | IC50
O=C(COc1cccc2c1N(Cc1ccc(Cl)cc1)C(=O)CO2)NS(=O)(=O)c1cccs1 [Compound P025] | > 10000 nM
CC12CCCC(C=CC(=O)NS(=O)(=O)c3cc(F)c(F)cc3F)=C1N(Cc1ccc(F)cc1)C(=O)C2 (stereo not shown) [Compound P300] | < 1000 nM
Cc1cn(Cc2cn3ccccc3n2)c2c(C=CC(=O)NS(=O)(=O)c3ccc(Cl)c(Cl)c3)cc(F)cc12 [Compound P406] | < 1000 nM
Cn1cc(CCC(=O)NS(=O)(=O)c2ccc(F)c(F)c2)c2c(Oc3ccc4ccccc4c3)cccc21 [Compound P362] | < 1000 nM
COc1ccccc1Sc1c[nH]c2cccc(OCC(=O)NS(=O)(=O)c3cc(Cl)c(Cl)s3)c12 [Compound P212] | < 1000 nM
Cc1cn(CCC(=O)NS(=O)(=O)c2cc(Cl)c(Cl)s2)c2c(Oc3ccc(Cl)cc3Cl)cc(F)cc12 [Compound P384] | < 1000 nM
COc1cccc(CN2C(=O)CC3(C)CCCC(C=CC(=O)NS(=O)(=O)c4ccc(F)c(F)c4)=C23)c1 (stereo not shown) [Compound P308] | < 1000 nM
Cn1cc(/C=C/C(=O)NS(=O)(=O)c2cc(F)c(F)cc2F)c2c(Oc3ccc4ccccc4c3)cccc21 [Compound P343] | < 1000 nM
CC(=O)Nc1ccc(S(=O)(=O)c2c[nH]c3cccc(OCC(=O)NS(=O)(=O)c4cc(Cl)c(Cl)s4)c23)cc1 [Compound P235] | < 1000 nM
COc1cc(Cn2cc(C)c3cc(F)cc(C=CC(=O)NS(=O)(=O)c4ccc(F)c(F)c4)c32)cc(OC)c1 [Compound P374] | < 1000 nM
CC12CCCC(C=CC(=O)NS(=O)(=O)c3cc(F)cc(F)c3)=C1N(Cc1cccc(Cl)c1Cl)C(=O)C2 (stereo not shown) [Compound P298] | < 1000 nM
O=C(C=Cc1cc(F)cc2ccn(Cc3ccc4ccccc4c3)c12)NS(=O)(=O)c1cccs1 [Compound P060] | < 1000 nM
CC1(C)C(=O)N(Cc2ccc(Cl)cc2Cl)c2c(C=CC(=O)NS(=O)(=O)c3cc(Cl)c(Cl)s3)cccc21 [Compound P131] | < 1000 nM
O=C(C=Cc1cccc2c1N(Cc1ccc3ccccc3c1)C(=O)C21OCCO1)NS(=O)(=O)c1cccs1 [Compound P083] | < 1000 nM
O=C(C=Cc1cccc2c1C(Nc1ccc3ccccc3c1)C(=O)N2)NS(=O)(=O)c1cc(Cl)c(Cl)s1 (stereo not shown) [Compound P241] | < 1000 nM
O=C(COc1cccc2c1N(Cc1ccc(Cl)c(Cl)c1)C(=O)CO2)NS(=O)(=O)c1cccs1 [Compound P039] | < 1000 nM
Cc1cn(Cc2ccc3c(c2)OCO3)c2c(/C=C/C(=O)NS(=O)(=O)c3cccs3)cccc12 [Compound P101] | < 1000 nM
O=Cc1cn(Cc2ccc(Cl)cc2Cl)c2c(C=CC(=O)NS(=O)(=O)c3cc(Cl)c(Cl)s3)cc(F)cc12 [Compound P396] | < 1000 nM
CC12CCCC(CCC(=O)NS(=O)(=O)c3cc(Cl)c(Cl)s3)C1N(Cc1ccc(F)c(F)c1)C(=O)C2 (stereo not shown) [Compound P415] | < 1000 nM
Cn1cc(C=CC(=O)NS(=O)(=O)c2cc(F)c(F)cc2F)c2c(Oc3ccc(Cl)cc3)cccc21 [Compound P309] | < 1000 nM
CN1C(=O)C(Sc2ccc3ccccc3c2)c2c(OCC(=O)NS(=O)(=O)c3cc(Cl)c(Cl)s3)cccc21 (stereo not shown) [Compound P229] | < 1000 nM
Cn1cc(C=CC(=O)NS(=O)(=O)c2cc(F)cc(F)c2)c2c(Oc3ccc4ccccc4c3)cccc21 [Compound P361] | < 1000 nM
CCOC(=O)C12CCCC(C=CC(=O)NS(=O)(=O)c3cc(Cl)c(Cl)s3)=C1N(Cc1ccc(Cl)cc1Cl)C(=O)C2 (stereo not shown) [Compound P345] | < 1000 nM
Cc1cn(Cc2ccccc2-c2ccccc2)c2c(/C=C/C(=O)NS(=O)(=O)c3cc(Cl)c(Cl)s3)cccc12 [Compound P125] | < 1000 nM
O=C(C=Cc1cccc2ccn(C(=O)c3ccc4ccccc4c3)c12)NS(=O)(=O)c1cccs1 [Compound P005] | < 1000 nM
Cn1cc(C=CC(=O)NS(=O)(=O)c2cc(F)c(F)cc2F)c2c(Oc3ccc(F)cc3F)cccc21 [Compound P324] | < 1000 nM
Cn1cc(C=CC(=O)NS(=O)(=O)c2ccc(F)c(F)c2)c2c(Oc3ccc(Cl)cc3F)cccc21 [Compound P338] | < 1000 nM

Results, then the compound that gave them:

IC50 | Compound
< 1000 nM | COc1ccc(Sc2c[nH]c3cccc(OCC(=O)NS(=O)(=O)c4cc(Cl)c(Cl)s4)c23)cc1 [Compound P200]
< 1000 nM | Cc1cn(Cc2ccc(OC(F)F)cc2)c2c(/C=C/C(=O)NS(=O)(=O)c3cc(Cl)c(Cl)s3)cccc12 [Compound P145]
< 1000 nM | Cc1cn(Cc2ccc(F)c(F)c2)c2c(/C=C/C(=O)NS(=O)(=O)c3cccs3)cccc12 [Compound P103]
< 1000 nM | O=C(CCc1cccc2ccn(Cc3ccc4ccccc4c3)c12)NS(=O)(=O)c1cccs1 [Compound P074]
< 1000 nM | Cn1cc(C=CC(=O)NS(=O)(=O)c2ccc(F)c(F)c2)c2c(Oc3ccc(Cl)cc3)cccc21 [Compound P310]
< 1000 nM | CC12CCCC(C=CC(=O)NS(=O)(=O)c3cc(Cl)c(Cl)s3)=C1N(Cc1ccc(Cl)cc1Cl)C(=O)C2 (stereo not shown) [Compound P278]
< 1000 nM | COc1ccc(S(=O)(=O)c2c[nH]c3cccc(OCC(=O)NS(=O)(=O)c4cc(Cl)c(Cl)s4)c23)cc1OC [Compound P170]
< 1000 nM | Cc1cn(Cc2cn3ccccc3n2)c2c(C=CC(=O)NS(=O)(=O)c3ccc(Cl)cc3)cc(F)cc12 [Compound P405]
< 1000 nM | O=C(C=Cc1cccc2ccn(Cc3ccc4ccccc4c3)c12)NS(=O)(=O)c1cccs1 [Compound P001]
< 1000 nM | O=C(C=Cc1cccc2c1N(Cc1ccc(Cl)cc1Cl)C(=O)C2=O)NS(=O)(=O)c1cc(Cl)c(Cl)s1 [Compound P113]
< 1000 nM | Cc1cn(Cc2ccc(Cl)cc2)c2c(/C=C/C(=O)NS(=O)(=O)c3cc(Cl)c(Cl)s3)cccc12 [Compound P137]
< 1000 nM | O=C(COc1cccc2[nH]cc(Sc3ccc4ccccc4c3)c12)NS(=O)(=O)c1cc(F)c(F)cc1F [Compound P226]
< 1000 nM | Cc1cn(Cc2ccc(Cl)cc2Cl)c2c(C(=O)NS(=O)(=O)c3ccc(F)c(F)c3)cc(F)cc12 [Compound P417]
1000 to 10000 nM | CCOP(=O)(NC(=O)OCc1cccc2ccn(Cc3ccc4ccccc4c3)c12)OCC [Compound P044]
< 1000 nM | Cc1cn(Cc2ccc(Cl)cc2Cl)c2c(C=CC(=O)NS(=O)(=O)c3ccccc3)cccc12 [Compound P090]
< 1000 nM | COc1cc(Cn2cc(C)c3cccc(/C=C/C(=O)NS(=O)(=O)c4cc(Cl)c(Cl)s4)c32)cc(OC)c1 [Compound P141]
< 1000 nM | O=C(C=Cc1cccc2c1N(Cc1ccc(Cl)cc1Cl)C(=O)C2O)NS(=O)(=O)c1cc(Cl)c(Cl)s1 (stereo not shown) [Compound P130]
< 1000 nM | CC1(O)C(=O)N(Cc2ccc3ccccc3c2)c2c(C=CC(=O)NS(=O)(=O)c3cccs3)cccc21 (stereo not shown) [Compound P111]
< 1000 nM | Cn1cc(C=CC(=O)NS(=O)(=O)c2cc(F)c(F)cc2F)c2c(Oc3ccc(Cl)cc3F)cccc21 [Compound P337]

IC50 | Compound
< 1000 nM | Cc1cn(Cc2ccccc2C#N)c2c(/C=C/C(=O)NS(=O)(=O)c3cc(Cl)c(Cl)s3)cc(F)cc12 [Compound P389]
< 1000 nM | Cn1cc(CCC(=O)NS(=O)(=O)c2cc(F)c(F)cc2F)c2c(Oc3ccc4ccccc4c3)cccc21 [Compound P412]
< 1000 nM | CC12CCCC(C=CC(=O)NS(=O)(=O)c3ccc(F)cc3)=C1N(Cc1ccc(Cl)cc1Cl)C(=O)C2 (stereo not shown) [Compound P274]
< 1000 nM | Cn1cc(C=CC(=O)NS(=O)(=O)c2cc(Cl)cc(Cl)c2)c2c(Oc3ccc4ccccc4c3)cccc21 [Compound P357]
< 1000 nM | CC1C(=O)N(Cc2ccc3ccccc3c2)c2c(C=CC(=O)NS(=O)(=O)c3cccs3)cc(F)cc21 (stereo not shown) [Compound P066]
< 1000 nM | Cc1cn(CCC(=O)NS(=O)(=O)c2ccc(F)c(F)c2)c2c(Oc3ccc(Cl)c(Cl)c3)cc(F)cc12 [Compound P387]
< 1000 nM | CC12CCCC(C=CC(=O)NS(=O)(=O)c3cc(Cl)c(Cl)s3)=C1N(Cc1cccc(Cl)c1)C(=O)C2 (stereo not shown) [Compound P285]
1000 to 10000 nM | O=C(COc1cccc2oc(=O)n(Cc3ccc4c(c3)OCO4)c12)NS(=O)(=O)c1cccs1 [Compound P050]
< 1000 nM | O=C(COc1cccc2[nH]cc(S(=O)(=O)c3ccc4ccccc4c3)c12)NS(=O)(=O)c1ccc(F)cc1 [Compound P236]
< 1000 nM | Cc1cn(Cc2cn3ccccc3n2)c2c(C=CC(=O)NS(=O)(=O)c3cc(F)c(F)cc3F)cc(F)cc12 [Compound P402]
< 1000 nM | O=C(C=Cc1cccc2c1N(Cc1ccc(Cl)cc1Cl)C(=O)C2)NS(=O)(=O)c1cc(Cl)c(Cl)s1 [Compound P127]
< 1000 nM | Cc1cn(Cc2ccc(F)c(F)c2)c2c(C=CC(=O)NS(=O)(=O)c3ccc(F)c(F)c3)cc(F)cc12 [Compound P315]
< 1000 nM | Cc1cn(Cc2ccc3ccccc3c2)c2c(/C=C/C(=O)N(C)S(=O)(=O)c3cc(Cl)c(Cl)s3)cc(F)cc12 [Compound P076]
< 1000 nM | CCOC(=O)C12CCCC(C=CC(=O)NS(=O)(=O)c3ccc(F)c(F)c3)=C1N(Cc1ccc(Cl)cc1Cl)C(=O)C2 (stereo not shown) [Compound P346]
< 1000 nM | O=C(COc1cccc2[nH]cc(S(=O)(=O)c3nc[nH]n3)c12)NS(=O)(=O)c1cc(Cl)c(Cl)s1 [Compound P240]
< 1000 nM | O=C(/C=C/c1cccc2c1N(Cc1ccc3ccccc3c1)CC2)NS(=O)(=O)c1cccs1 [Compound P003]
< 1000 nM | CC12CCCC(CCC(=O)NS(=O)(=O)c3cc(F)c(F)cc3F)C1N(Cc1ccc(F)c(F)c1)C(=O)C2 (stereo not shown) [Compound P410]
< 1000 nM | Cc1cn(Cc2ccc(OC(F)(F)F)cc2)c2c(/C=C/C(=O)NS(=O)(=O)c3cc(Cl)c(Cl)s3)cccc12 [Compound P143]
